The values below come from PubChem BioAssay (NCI).

The TGI is the concentration at which net growth stops. The low end stands for greater sensitivity of the cells, the high end for lower sensitivity of the cells.

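A five-concentration, 48-hour dose response in 96-well plates underlies each endpoint, interpolated linearly between surrounding concentrations. TGI marks complete inhibition of growth.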

Among the test systems are PC-3 prostate; NCI-H460 lung; SR leukemia; SNB-75 CNS; NCI-H226 lung; CAKI-1 renal; UACC-257 melanoma; SF-268 CNS; NCI-H522 lung; SK-MEL-2 melanoma.
What all share (assay): DTP human tumour cell line panel, 48 h

Turning to `CC1(C)C/C=C\CCC(O)C(O)CCC(C)(C)C1=O` (stereo not given), the concentration for total growth inhibition (TGI) in the experiment with PC-3 prostate, with NCI-H460 lung, with SR leukemia, in the experiment with SNB-75 CNS, in the experiment on NCI-H226 lung and in the experiment on CAKI-1 renal was above 100 µM throughout. The total growth inhibition concentration (TGI) in the experiment on UACC-257 melanoma, in the experiment on SF-268 CNS, with NCI-H522 lung and in the experiment with SK-MEL-2 melanoma was above 100 µM each time.
As for `O=C1CSC2(CC(/C=C/c3ccccc3[N+](=O)[O-])=NN2c2cccc(S(=O)(=O)O)c2)N1c1nc2ccccc2s1` (stereo not given), the concentration for total growth inhibition (TGI) in the experiment on PC-3 prostate is 35.4 µM; with NCI-H460 lung, 52.7 µM; in the experiment on SR leukemia, 63.1 µM; in the experiment with SNB-75 CNS, 28.8 µM; in the experiment on NCI-H226 lung it was 44.1 µM; with CAKI-1 renal, above 75 µM. The TGI with UACC-257 melanoma is above 75 µM; with SF-268 CNS, 41.1 µM; in the experiment with NCI-H522 lung it was 22.1 µM; with SK-MEL-2 melanoma it was 35.4 µM.
For `Cc1c(OCc2cccc3ccccc23)ccc2c(=O)cc(S)oc12`, the total growth inhibition concentration (TGI) is above 100 µM in the experiment with PC-3 prostate; above 100 µM in the experiment with NCI-H460 lung; 62.1 µM in the experiment on SR leukemia; above 100 µM in the experiment on SNB-75 CNS; above 100 µM in the experiment with NCI-H226 lung; above 100 µM with CAKI-1 renal. The TGI in the experiment on UACC-257 melanoma is above 100 µM; in the experiment with SF-268 CNS, above 100 µM; with NCI-H522 lung it was 89.4 µM; in the experiment with SK-MEL-2 melanoma, 50.4 µM.
As for `COc1ccc2oc(=O)c(-c3nc4ccccc4s3)cc2c1`, the concentration for total growth inhibition (TGI) was above 100 µM with PC-3 prostate; above 100 µM in the experiment with NCI-H460 lung; above 100 µM in the experiment with SR leukemia; 27.5 µM in the experiment on SNB-75 CNS; above 63.1 µM with NCI-H226 lung; above 51.8 µM in the experiment on CAKI-1 renal. Further, the TGI in the experiment on UACC-257 melanoma, with SF-268 CNS, with NCI-H522 lung and in the experiment with SK-MEL-2 melanoma was above 100 µM throughout.
As for `O=C1CN2CCN(CC2)CC(=O)Nc2ccc(cc2)S(=O)(=O)c2ccc(cc2)NC(=O)CN2CCN(CC2)CC(=O)Nc2ccc(cc2)S(=O)(=O)c2ccc(cc2)N1`, the concentration for total growth inhibition (TGI) in the experiment with PC-3 prostate is above 100 µM; with NCI-H460 lung, 38.4 µM; in the experiment with SR leukemia, above 100 µM; in the experiment on SNB-75 CNS, above 100 µM; in the experiment with NCI-H226 lung it was above 100 µM; with CAKI-1 renal it was above 100 µM. Also, the TGI with UACC-257 melanoma was above 100 µM; in the experiment on SF-268 CNS, 38.7 µM; in the experiment on NCI-H522 lung, 22.1 µM; in the experiment on SK-MEL-2 melanoma, above 92.3 µM.
In the case of `Cc1csc(CP(=O)(OC(C)C)OC(C)C)n1`, the concentration for total growth inhibition (TGI) in the experiment on PC-3 prostate, in the experiment on NCI-H460 lung, in the experiment on SR leukemia, in the experiment with SNB-75 CNS, in the experiment with NCI-H226 lung and in the experiment on CAKI-1 renal was above 100 µM in each case. The concentration for total growth inhibition (TGI) with UACC-257 melanoma, in the experiment on SF-268 CNS, with NCI-H522 lung and in the experiment on SK-MEL-2 melanoma was above 100 µM throughout.
As for `CCOC(=O)C1=CN(Cc2ccccc2)C2ON=C(c3ccc(Cl)cc3)C2C1` (stereo not given), the concentration for total growth inhibition (TGI) with PC-3 prostate was above 53.5 µM; with NCI-H460 lung, above 65 µM; in the experiment with SR leukemia, 97.4 µM; with SNB-75 CNS it was above 72.5 µM; in the experiment with NCI-H226 lung, above 74.3 µM; in the experiment on CAKI-1 renal, above 85.1 µM. Also, the total growth inhibition concentration (TGI) was above 66.8 µM in the experiment with UACC-257 melanoma, above 66.3 µM in the experiment with SF-268 CNS, above 49.6 µM with NCI-H522 lung and 38.6 µM in the experiment with SK-MEL-2 melanoma.
As to `C=C(C)[C@H]1C=C[C@@H](OC(C)=O)[C@@]2(COC(C)=O)[C@H](OC(=O)CCC)[C@H]3[C@@H](OC(C)=O)[C@@H](C)C[C@]3(O)C(=O)[C@@](C)(OC(C)=O)[C@H]12`, the total growth inhibition concentration (TGI) in the experiment with PC-3 prostate, with NCI-H460 lung, in the experiment with SR leukemia, in the experiment on SNB-75 CNS, with NCI-H226 lung and in the experiment on CAKI-1 renal was above 100 µM each time. For the same compound, the concentration for total growth inhibition (TGI) in the experiment on UACC-257 melanoma, with SF-268 CNS, in the experiment on NCI-H522 lung and with SK-MEL-2 melanoma was above 100 µM throughout.
For the compound `O=[N+]([O-])C(=C(\Cl)NCCO)/C(Cl)=C(/Cl)Br`, the TGI in the experiment with PC-3 prostate was 7.68 µM; in the experiment with NCI-H460 lung, 10.8 µM; with SR leukemia it was 5.25 µM; with SNB-75 CNS, 9.08 µM; in the experiment with NCI-H226 lung, 17.7 µM; in the experiment with CAKI-1 renal, 1.85 µM. The TGI in the experiment with UACC-257 melanoma was found to be 4.4 µM; with SF-268 CNS, 4.56 µM; in the experiment with NCI-H522 lung it was 2.88 µM; with SK-MEL-2 melanoma, 4.14 µM.
Take `O=c1oc2ccc([N+](=O)[O-])cc2cc1-c1csc(-c2ccccc2)n1`: the TGI in the experiment with PC-3 prostate, with NCI-H460 lung, in the experiment on SR leukemia, with SNB-75 CNS, with NCI-H226 lung and with CAKI-1 renal was above 100 µM in each case. The total growth inhibition concentration (TGI) in the experiment with UACC-257 melanoma, in the experiment with SF-268 CNS, in the experiment with NCI-H522 lung and in the experiment on SK-MEL-2 melanoma was above 100 µM each time.
